Test results reported in patent US11318190B2, “Methods and compositions for treating liver disease” (UNITED STATES GOVERNMENT AS REPRESENTED BY THE DEPARTMENT …, priority 2017, dated 2022).
Entries after “also recorded” stand apart in the source; their conditions may differ.

Test system: dnTGF-βRII mice
Assay: dnTGF-βRII mice 32-34 wk (late stage PBC model) treated 1 wk by osmotic minipump
Assay type: in vivo, mouse
Details: for intrahepatic bile duct mass (IBDM, CK-19): 1 wk minipump
Procedure: Briefly, we used wild-type (WT), dnTGFβRII 12 wk and dnTGFβRII 34 wk mice treated with control or SR antagonist (SCT 5-27) minipump (10 μg/kg/day) for 1 wk. Hepatic damage was shown by H&E. IBDM and cholangiocyte proliferation were measured by immunohistochemistry for CK-19 and Ki67, respectively. Biliary apoptosis was evaluated by TUNEL staining. Senescence was measured in cholangiocytes by immunofluorescence for CCL2 or p16 co-stained with CK-19 (to image bile ducts) and SA-β-Galactosidase activity. Hepatic fibrosis was assessed by qPCR for collagen-1a and α-SMA in total liver, and quantification of Sirius Red staining. Hepatic stellate cell (HSC) activation was evaluated by immunofluorescence (IF) for Syp-9. HSC senescence was evaluated by IF for CCL2 or p16 co-stained with desmin (to visualize HSCs). Secretin levels in serum and bile were measured by EIA. Bile and serum were obtained from human control, early PBC and advanced PBC patients, and secretin was evaluated by EIA.
All animal procedures were performed according to protocols approved by the Baylor Scott & White Health IACUC Committee. Transgenic mice expressing a dominant-negative form of the human transforming growth factor-beta receptor II (dnTGF-βRII) were obtained from Dr. M. Eric Gershwin at UC Davis Health (Sacramento, Calif.), and background-matched wild-type (WT, strain C57BL/6) mice were purchased from Charles River Laboratories (Wilmington, Mass.); the breeding colony is established in our animal facility. Animals were maintained in micro-isolator cages in a temperature-controlled environment with 12/12-hr light/dark cycles and fed ad libitum standard chow with free access to drinking water. Studies were performed in 12 wk-old WT mice, and 12 wk-old (mimic early stage PBC) and 32 wk-old (mimic late stage PBC) female and male dnTGF-βRII mice (25-30 gm) that were treated with either saline, secretin (Sct; 2.5 nmoles/kg body weight per day; Bachem, Torrance, Calif.) or the secretin receptor (SR) antagonist, Sec 5-27 (10 μg/kg body weight per day; Thermo Fisher Scientific, Waltham, Mass.) for 1 wk by intraperitoneally implanted osmotic minipump. Liver tissue samples and blocks (formalin-fixed, paraffin-embedded and OCT-embedded), serum, bile, cholangiocytes, and cholangiocyte supernatants (after incubation at 37° C. for 4 hr) were collected as described.
Hematoxylin and eosin (H&E) staining was performed in formalin-fixed, paraffin-embedded liver sections (4-5 μm, 3 samples from 3 different animals) to determine liver morphology. H&E stained liver sections were evaluated by a board-certified pathologist to assess the degree of lobular damage, hepatic necrosis and portal inflammation. At least 10 different portal areas were evaluated for each parameter. Liver sections were examined in a coded fashion by BX-51 light microscopy (Olympus, Tokyo, Japan) equipped with a camera (See, Mancinelli, R et al., Ischemia reperfusion of the hepatic artery induces the functional damage of large bile ducts by changes in the expression of angiogenic factors. Am J Physiol Gastrointest Liver Physiol 2015; 309:G865-873 (2015); Taffetani S et al., Prolactin stimulates the proliferation of normal female cholangiocytes by differential regulation of Ca2+-dependent PKC isoforms, BMC Physiol 7:6 (2007)).
Serum levels of alkaline phosphatase (ALP) and γ-glutamyltransferase (γGT) are commonly used to diagnose PBC (Heathcote, E J, Management of primary biliary cirrhosis. The American Association for the Study of Liver Diseases practice guidelines, Hepatology 31:1005-1013 (2000)); therefore, were measured serum levels of ALP and γGT in mouse serum samples using the Alkaline Phosphatase Assay Kit and γ-Glutamyltransferase Activity Colorimetric Assay Kit, respectively (Abcam; Cambridge, Mass.).
Early stage PBC is identified by cholangiocyte proliferation, whereas late stage PBC is characterized by ductopenia. […]

[1] = dnTGF-βRII 32/34 wk, vs saline treated

With secretin [Sct] the “biliary senescence (p16, p18, p21, CCL2)” value (dnTGF-βRII 32/34 wk) was “reduced”, the “cholangiocyte apoptosis (TUNEL)” value (dnTGF-βRII 32/34 wk) was “reduced” and the “collagen content / deposition (Sirius Red), hepatic fibrosis” value (dnTGF-βRII 32/34 wk) was “decreased; also recorded: reduced”. For the same substance, the “Sct, SR, CFTR and AE2 expression” value [1] was “increased expression”, the “intrahepatic bile duct mass (IBDM, CK-19)” value [1] was “increased” and the “intrahepatic bile duct mass (IBDM, CK-19)” value (dnTGF-βRII 32/34 wk, vs saline treated, listed as secretin) was “increased biliary mass in the late stage PBC mice back to normal levels”. The “collagen content / deposition (Sirius Red), hepatic fibrosis” value (dnTGF-βRII 32/34 wk, listed as secretin) was “significantly reduced”, the “HSC activation (SYP-9)” value (dnTGF-βRII 34 wk) was “reduced” and the “biliary growth / cholangiocyte proliferation” value (dnTGF-βRII 34 wk) was “increased”. The “liver damage (H&E)” value (dnTGF-βRII 34 wk) was “ameliorate; also recorded: reduced”, the “secretin levels (serum; serum and bile)” value (dnTGF-βRII 34 wk) was “increased” and the “Liver inflammation, Kupffer cell number” value (dnTGFβRII 12 and 34 wk as printed) was “reduced”. The TBA levels (dnTGFβRII 34 wk) was “reduced” and the “serum levels of ALP and γGT” value (late stage PBC model) was “reduced”.
